“Also recorded” adds a separate entry of the source.
Experiments:
in vivo = conditions: nude, rat, ip
Method: (§2) To follow up on these findings and to determine if combinations were tolerable and efficacious in vivo, nude rats implanted subcutaneously with MV4-11 tumors were dosed using a range of doses and schedules. […] In preparation for an efficacy combination study, the Azacitidine and Cytarabine single agent activity in a MV4-11 model was determined.
(§3) 35 mg/kg/day EPZ-5676 was administered by continous IV (CIV) infusion while Azacitdine and Cytarabine was dosed daily by intraperitoneal injection at 2 and 200 mg/kg respectively. […] The tumor volumes are represented as the median tumor volumes mm^3 of the group.

MV4-11 tumors = experiment: MV4-11 subcutaneous xenograft efficacy study in nude rats; assay type: in vivo, rat; conditions: single agent at the MTD (Azacitidine 2 mg/kg, Cytarabine 200 mg/kg), intraperitoneal once daily for 14 days
Method: as §2, §3

RS4;11 (MLL-AF4) cells [1] = experiment: Cell death / cell kill in RS4;11 cells; assay type: cell-based; conditions: for cell death / cell kill: 0.5 μM EPZ-5676, day not given
ML-2 (MLL-AF6) cells [2] = experiment: Cell death / cell kill in ML-2 cells; assay type: cell-based; conditions: for cell death: 0.5 μM EPZ-5676, day not given
RS4;11 (MLL-AF4) cells [3] = experiment: Cellular differentiation assay in RS4;11 cells; assay type: cell-based; conditions: for cellular differentiation: 0.5 μM EPZ-5676, day not given
MV4-11 (MLL-AF4) cells [4] = experiment: Cell death / cell kill in MV4-11 cells (Annexin V/7-AAD flow cytometry, CTG, cell count, Incucyte caspase 3/7); assay type: cell-based; conditions: for cell death in a dose response experiment: single agent dose response
Source text: FIG. 2A depicts three experimental conditions: 1) MV4-11 cells were contacted with AZA for three consecutive days, followed by treatment with EPZ-5676 on the second, fourth, sixth, and ninth day; 2) the MV4-11 cells were contacted with vehicle for three consecutive days, followed by treatment with EPZ-5676 on the second, fourth, sixth, and ninth day; and 3) the MV4-11 cells were contacted with vehicle for three consecutive days, followed by contact with vehicle on the second, fourth, sixth, and ninth day.
FIGS. 5A-5F are a series of graphs that depict real-time imaging to study the effect of AZA priming on MV4-11 cells utilizing Incucyte Zoom® for suspension cell imaging. […] The Kinetic Caspase 3/7 reagent was used to assess cell death (FIG. 5B). For these assays, 6,000 cells were plated per well of a 96-well plate and dosed with EPZ-5676 using a ten point concentration gradient starting from 10 μM. 1× caspase dye was then added to each well. FIG. 5C is a series of graphs that depict real-time monitoring of cell death using Caspase 3/7 kinetic dye. […] FIG. 5E is a series of graphs that depict real-time monitoring of AUC Growth by Red object (labeled cell) count. FIG. 5F is a series of graphs that depicts cellular AUC growth following vehicle or AZA priming followed by treatment with EPZ-5676, and control conditions including vehicle alone, DMSO.
In this study of Example 1, the flexibility of treatment schedules when EPZ-5676 was combined with Azacitidine in MLL-r cells was evaluated.
Compounds were evaluated for cell killing effects as single agents and in combination according to the methods described in the experimental setup.

ML-2 (MLL-AF6) cells [5] = experiment: Cellular differentiation assay in ML-2 cells; assay type: cell-based; conditions: for cellular differentiation (CD14+ differentiated cell population): 0.5 μM EPZ-5676, day not given
NOMO-1 (MLL-AF9) cells [6] = experiment: Cell death / cell kill in NOMO-1 cells (Annexin V/7-AAD); assay type: cell-based; conditions: for resistance of cell line to the agent: sensitive is defined as IC50 ≤ 3 μM
Method: (§1) FIGS. 4A-4H are a series of schematics and graphs that depict the effect on cellular differentiation of AZA priming in AML cell lines. […] FIG. 4C depicts AZA dose response curves for an AML cell line panel. […] For the flow cytometry assays, Annexin V/7-AAD staining was used to assess cell death, and CD11b/CD14 antibodies were used to evaluate cellular differentiation. […] Flow cytometry assays were also performed to assess cellular differentiation and cell death following AZA priming followed by treatment of the cells with 0.5 μM EPZ-5676.

MV4-11 (MLL-AF4) cells [7] = experiment: Cellular differentiation assay (CD11b/CD14 flow cytometry) in MV4-11 cells; assay type: cell-based
Method: FIGS. 4A-4H are a series of schematics and graphs that depict the effect on cellular differentiation of AZA priming in AML cell lines. FIGS. 4A and 4B are a series of schematics that depict the experimental setup of the assays performed to determine differentiation and cell death. FIG. 4C depicts AZA dose response curves for an AML cell line panel. FIGS. 4D-4G are a series of flow cytometry assays that were performed to assess cellular differentiation and cell death in the NOMO-1 acute myeloid leukemia cell line. For the flow cytometry assays, Annexin V/7-AAD staining was used to assess cell death, and CD11b/CD14 antibodies were used to evaluate cellular differentiation. […] Flow cytometry assays were also performed to assess cellular differentiation and cell death following AZA priming followed by treatment of the cells with 0.5 μM EPZ-5676.
FIGS. 6A-6D are a series of flow cytometry graphs that depict cellular differentiation and cell death following treatment of MV4-11 (MLL-AF4) cells with vehicle or AZA priming followed by 0.5 μM EPZ-5676, or vehicle only conditions.

NOMO-1 (MLL-AF9) cells [8] = experiment: Cellular differentiation assay (CD11b/CD14) in NOMO-1 cells; assay type: cell-based; conditions: 0.5 μM EPZ-5676; day not given
Method: as §1

MEIS1 = MEIS1 mRNA expression in MV4-11 cell line; assay type: cell-based; conditions: with increased concentrations (dose dependent)
Method: FIGS. 1A-1D are a series of graphs that depict mRNA expression levels of MEIS1 (FIGS. 1A and 1C) and HOXA2 (FIGS. 1B and 1D) in the MV4-11 cell line following treatment with AZA (also referred to herein as Azacitidine) and EPZ-5676. The data depicted in FIGS. 1A and 1B are from assays in which various concentrations of EPZ-5676 or DMSO alone, in combination with 1 μM AZA QD×3, 0.3 μM AZA QD×3, or vehicle alone were contacted with the cultured MV4-11 cells. (QD=daily dosage; QD×3=three day treatment). […]

[9] = system: REH (non-rearranged control); experiment: Cell kill combination study in REH cells; assay type: cell-based; conditions: sensitive is defined as IC50 ≤ 3 μM
[10] = system: histone H3K79 methylation; conditions: cited from earlier work
HOXA9 = HOXA9 expression; assay type: cell-based; conditions: dose dependent
Source text: For example, a gene expression assay that can be used includes the steps of (1) culturing cells (e.g., EOL-1, KOPM-88, Molm13, MV411, LOUCY, SemK2, Reh, HL60, BV173, or Jurkat cells) in the presence or absence of a compound (e.g., Compound A2 and/or a DNMT inhibitor); (2) harvesting the cells; (3) extracting the RNA using methods known in the art (e.g., Qiagen RNeasy Kit); (4) synthesizing cDNA from the extracted RNA (e.g., Applied Biosystems reverse transcriptase kit); (5) preparing qPCR reactions using, for example, primers and probes (e.g., predesigned labeled primer and probe sets for HOXA9, FLT3, MEIS1, MEIS2, TBP, BCL, DOT1L, and β2-microglobulin from Applied Biosystems), synthesized sample cDNA, and qPCR master mix reagent (e.g., Applied Biosystems Taqman universal PCR master mix); (6) running samples on PCR machine (e.g., Applied Biosystems); (7) analysis of the data and calculation of relative gene expression.

[11] = system: MLL rearranged leukemia xenograft; conditions: in vivo; cited from earlier work
H3K79me2 = H3K79me2 ChIP-qPCR in MV4-11 cells; assay type: cell-based; conditions: 0.5 μM EPZ-5676; 0.5 μM QD×3 AZA
Method: FIGS. 3A-3D are a series of graphs that contain data obtained from H3K79me2 ChIP-qPCR assays of MV4-11 (MLL-AF4) cells at various time points following exposure to either vehicle alone, vehicle and 0.5 μM EPZ-5676, or 0.5 μM QD×3 AZA and 0.5 μM EPZ-5676.

[12] = 0.5 μM EPZ-5676 with or without AZA priming, day not given
[13] = sensitive is defined as IC50 ≤ 3 μM

Nc1ccn([C@@H]2O[C@H](CO)[C@@H](O)[C@@H]2O)c(=O)n1 [Cytarabine]
MTD at 14 days (in vivo): 200 mg/kg
inhibition of subcutaneous MV4-11 tumor compared to vehicle control (MV4-11 tumors): 50%

Nc1ncn([C@@H]2O[C@H](CO)[C@@H](O)[C@H]2O)c(=O)n1 [Azacitidine, reference compound]
cell death / cell kill (RS4;11 (MLL-AF4) cells [1]): effect on cell death
cell death (ML-2 (MLL-AF6) cells [2]): effect on cell death
MTD at 14 days (in vivo): 2 mg/kg
cellular differentiation (RS4;11 (MLL-AF4) cells [3]): no effect
cell death in a dose response experiment (MV4-11 (MLL-AF4) cells [4]): AZA induces cell death in MV4-11 cells
cellular differentiation (CD14+ differentiated cell population) (ML-2 (MLL-AF6) cells [5]): no effect
resistance of cell line to the agent (NOMO-1 (MLL-AF9) cells [6]): resistant
inhibition of subcutaneous MV4-11 tumor compared to vehicle control (MV4-11 tumors): 50%

CC(C)N(C[C@H]1O[C@@H](n2cnc3c(N)ncnc32)[C@H](O)[C@@H]1O)[C@H]1C[C@@H](CCc2nc3cc(C(C)(C)C)ccc3[nH]2)C1 [EPZ-5676, pinometostat]
cellular differentiation (CD14 positive population) (MV4-11 (MLL-AF4) cells [7]; [12]): no increase
CD11b+ cell population (MV4-11 (MLL-AF4) cells [7]; Day 6): Depletion of CD11b+ cell
CD14+ cell population (MV4-11 (MLL-AF4) cells [7]; Day 6): No increase in CD14+
CD11b+ cell population (MV4-11 (MLL-AF4) cells [7]; Day 10): Depletion of CD11b+
CD14+ cell population (MV4-11 (MLL-AF4) cells [7]; Day 10): No increase in CD14+—
amount of CD14+ cells (NOMO-1 (MLL-AF9) cells [8]): increase
MEIS1 mRNA levels / expression (MEIS1): reduces
resistance of cell line to the agent [9]: resistant
inhibition of intracellular histone H3K79 methylation [10]: selectively inhibits
HOXA9 expression (HOXA9): reduces
cell death / cell kill (RS4;11 (MLL-AF4) cells [1]): no cell death
cell kill (RS4;11 (MLL-AF4) cells [1]; Day 6): No cell kill with EPZ-
cell kill (RS4;11 (MLL-AF4) cells [1]; Day 10): No cell kill with EPZ-
resistance of cell line to the agent (RS4;11 (MLL-AF4) cells [1]; [13]): resistant
cell death (ML-2 (MLL-AF6) cells [2]): no cell death
cell kill (ML-2 (MLL-AF6) cells [2]; Day 6): No cell kill with EPZ-
cell kill (ML-2 (MLL-AF6) cells [2]; Day 10): No cell kill with EPZ-
resistance of cell line to the agent (ML-2 (MLL-AF6) cells [2]; [13]): resistant
cellular differentiation (RS4;11 (MLL-AF4) cells [3]): no cell differentiation
differentiation (RS4;11 (MLL-AF4) cells [3]; Day 6): No differentiation
differentiation (RS4;11 (MLL-AF4) cells [3]; Day 10): No differentiation
cell death (MV4-11 (MLL-AF4) cells [4]; [12]): no appreciable cell death
IC50 (MV4-11 (MLL-AF4) cells [4]; Homo sapiens, MV4-11, read-out: sensitivity of MV4-11 to EPZ-5676): ≤ 3 µM
cell death in a dose response experiment (MV4-11 (MLL-AF4) cells [4]): EPZ-5676 does not induce cell death in
tumor response [11]: complete tumor regressions
cellular differentiation (CD14+ differentiated cell population) (ML-2 (MLL-AF6) cells [5]): no cell differentiation; also recorded: population as compared to no
differentiation (ML-2 (MLL-AF6) cells [5]; Day 6): No differentiation
differentiation (ML-2 (MLL-AF6) cells [5]; Day 10): No differentiation
cell death (NOMO-1 (MLL-AF9) cells [6]; 0.5 μM EPZ-5676, day not given): no appreciable cell death
cell kill (NOMO-1 (MLL-AF9) cells [6]; Day 6): No cell kill with EPZ-
cell kill (NOMO-1 (MLL-AF9) cells [6]; Day 10): No cell kill with EPZ-
resistance of cell line to the agent (NOMO-1 (MLL-AF9) cells [6]): resistant
H3K79me2 signal / mark (ChIP-qPCR, MEIS1 and HOXA9 genes) (H3K79me2): reduced; also recorded: single agent both decrease H3K79me2
